Test results published in patent US10231954B2, “Neurodegenerative therapies” (LYTIX BIOPHARMA AS, priority 2014, dated 2019).
Like-named read-outs stand apart in the source and are kept apart here.

Legend:
Format in all cases: biochemical
MNK1 = MNK1 (Homo sapiens, UniProt Q9BUB5); experiment: Kinase profiling MNK1; settings: for remaining activity at 100 µM: read-out: residual kinase activity, MNK1
Description: (§1) Any value less that 25 is considered to be highly significant inhibition.

AMPK = experiment: Kinase profiling AMPK
Description: as §1

MARK1 = MARK1 (Homo sapiens, UniProt Q9P0L2); experiment: Kinase profiling MARK1; settings: for remaining activity at 100 µM: read-out: residual kinase activity, MARK1
Description: as §1

TTBK1 = TTBK1 (Homo sapiens, UniProt Q5TCY1); experiment: Kinase profiling TTBK1; settings: for remaining activity at 100 µM: read-out: residual kinase activity, TTBK1
Description: as §1

MLK1 = MLK1 (Homo sapiens, UniProt P80192); experiment: Kinase profiling MLK1; settings: for remaining activity at 100 µM: read-out: residual kinase activity, MLK1
Description: as §1

ABL = ABL (Homo sapiens, UniProt P00519); experiment: Kinase profiling ABL; settings: for remaining activity at 100 µM: read-out: residual kinase activity, ABL
Description: as §1

EPH-B2 = biological target: T1, EPH-B2 (Homo sapiens, UniProt P29323); experiment: Kinase profiling EPH-B2; settings: for remaining activity at 100 µM: read-out: residual kinase activity, EPH-B2
T1 sequence (P29323 19-1055): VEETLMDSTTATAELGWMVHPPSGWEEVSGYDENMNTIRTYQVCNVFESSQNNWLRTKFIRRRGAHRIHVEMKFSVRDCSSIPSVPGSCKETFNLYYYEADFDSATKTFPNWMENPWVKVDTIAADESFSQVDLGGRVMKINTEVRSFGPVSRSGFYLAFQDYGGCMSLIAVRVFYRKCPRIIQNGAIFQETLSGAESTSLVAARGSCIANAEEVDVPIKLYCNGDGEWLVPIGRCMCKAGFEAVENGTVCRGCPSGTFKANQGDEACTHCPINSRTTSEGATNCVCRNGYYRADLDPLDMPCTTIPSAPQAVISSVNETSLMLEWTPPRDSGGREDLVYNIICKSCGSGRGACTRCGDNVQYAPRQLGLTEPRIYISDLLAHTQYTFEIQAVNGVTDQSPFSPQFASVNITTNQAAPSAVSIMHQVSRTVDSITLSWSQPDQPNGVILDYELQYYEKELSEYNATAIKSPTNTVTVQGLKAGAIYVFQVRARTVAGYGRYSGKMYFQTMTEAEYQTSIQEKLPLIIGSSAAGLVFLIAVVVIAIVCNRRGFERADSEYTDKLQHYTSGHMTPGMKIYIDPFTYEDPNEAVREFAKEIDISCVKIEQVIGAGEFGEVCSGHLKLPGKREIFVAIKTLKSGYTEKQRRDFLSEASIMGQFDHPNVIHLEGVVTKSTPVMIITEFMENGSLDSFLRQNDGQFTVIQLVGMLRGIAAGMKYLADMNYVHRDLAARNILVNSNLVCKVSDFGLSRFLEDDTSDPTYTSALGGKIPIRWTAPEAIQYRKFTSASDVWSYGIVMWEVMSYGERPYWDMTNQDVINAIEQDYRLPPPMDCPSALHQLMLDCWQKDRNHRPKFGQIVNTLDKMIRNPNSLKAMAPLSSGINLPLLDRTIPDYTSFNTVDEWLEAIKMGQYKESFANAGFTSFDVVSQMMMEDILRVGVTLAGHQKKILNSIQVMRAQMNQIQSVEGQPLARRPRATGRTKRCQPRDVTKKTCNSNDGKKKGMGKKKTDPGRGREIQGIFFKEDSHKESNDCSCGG
Description: as §1

ULK2 = biological target: T2, ULK2 (Homo sapiens, UniProt Q8IYT8); experiment: Kinase profiling ULK2; settings: for remaining activity at 100 µM: read-out: residual kinase activity, ULK2
T2 sequence (Q8IYT8 1-1036): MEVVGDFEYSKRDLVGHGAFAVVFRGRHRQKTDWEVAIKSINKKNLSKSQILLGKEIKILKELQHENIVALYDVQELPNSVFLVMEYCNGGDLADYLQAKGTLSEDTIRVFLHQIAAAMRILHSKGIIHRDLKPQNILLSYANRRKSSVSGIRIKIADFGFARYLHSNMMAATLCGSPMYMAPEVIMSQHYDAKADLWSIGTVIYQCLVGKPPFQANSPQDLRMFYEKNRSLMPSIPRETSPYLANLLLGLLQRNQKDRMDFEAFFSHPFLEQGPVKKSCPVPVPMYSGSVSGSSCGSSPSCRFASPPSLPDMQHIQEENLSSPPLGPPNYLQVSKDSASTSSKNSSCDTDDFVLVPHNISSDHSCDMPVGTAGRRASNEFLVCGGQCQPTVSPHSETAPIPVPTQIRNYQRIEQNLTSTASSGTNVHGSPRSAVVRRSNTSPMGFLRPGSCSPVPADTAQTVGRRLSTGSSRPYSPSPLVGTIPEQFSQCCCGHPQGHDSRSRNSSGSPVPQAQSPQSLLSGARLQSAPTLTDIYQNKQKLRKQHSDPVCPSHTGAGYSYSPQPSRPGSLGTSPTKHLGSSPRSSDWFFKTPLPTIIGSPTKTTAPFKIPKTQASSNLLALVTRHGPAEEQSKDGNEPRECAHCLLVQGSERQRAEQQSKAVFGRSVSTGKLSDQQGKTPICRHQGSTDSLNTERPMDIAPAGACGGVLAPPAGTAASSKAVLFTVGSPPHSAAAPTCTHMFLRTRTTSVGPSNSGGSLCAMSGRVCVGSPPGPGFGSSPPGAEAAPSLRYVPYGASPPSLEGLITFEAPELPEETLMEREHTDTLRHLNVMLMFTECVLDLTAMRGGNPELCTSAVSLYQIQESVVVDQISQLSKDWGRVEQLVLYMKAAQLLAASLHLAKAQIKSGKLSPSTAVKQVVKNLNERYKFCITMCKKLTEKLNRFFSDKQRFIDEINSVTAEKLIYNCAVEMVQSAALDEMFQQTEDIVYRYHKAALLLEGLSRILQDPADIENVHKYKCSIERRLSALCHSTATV
Description: as §1

PDGFRA = PDGFRA (Homo sapiens, UniProt P16234); experiment: Kinase profiling PDGFRA; settings: for remaining activity at 100 µM: read-out: residual kinase activity, PDGFRA
Description: as §1

[1] = 100 micromolar inhibitor concentration, 100 is no change
[2] = 100 micromolar inhibitor, 100 = no change

Sequence of MNK1 (Q9BUB5 whole entry, species assumed): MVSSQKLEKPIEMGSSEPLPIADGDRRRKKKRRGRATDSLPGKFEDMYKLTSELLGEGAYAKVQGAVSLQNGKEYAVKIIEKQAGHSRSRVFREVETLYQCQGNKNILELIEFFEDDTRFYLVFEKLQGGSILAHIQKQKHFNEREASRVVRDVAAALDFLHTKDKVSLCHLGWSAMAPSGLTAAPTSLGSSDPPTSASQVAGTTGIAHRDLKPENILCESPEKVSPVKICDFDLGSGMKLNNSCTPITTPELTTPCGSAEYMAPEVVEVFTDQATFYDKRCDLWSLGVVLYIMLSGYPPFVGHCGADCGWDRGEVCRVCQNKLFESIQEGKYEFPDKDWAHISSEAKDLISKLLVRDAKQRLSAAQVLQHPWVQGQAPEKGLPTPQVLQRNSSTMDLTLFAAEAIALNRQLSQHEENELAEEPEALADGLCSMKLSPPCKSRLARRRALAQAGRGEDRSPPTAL
Sequence of ABL (P00519 whole entry, species assumed): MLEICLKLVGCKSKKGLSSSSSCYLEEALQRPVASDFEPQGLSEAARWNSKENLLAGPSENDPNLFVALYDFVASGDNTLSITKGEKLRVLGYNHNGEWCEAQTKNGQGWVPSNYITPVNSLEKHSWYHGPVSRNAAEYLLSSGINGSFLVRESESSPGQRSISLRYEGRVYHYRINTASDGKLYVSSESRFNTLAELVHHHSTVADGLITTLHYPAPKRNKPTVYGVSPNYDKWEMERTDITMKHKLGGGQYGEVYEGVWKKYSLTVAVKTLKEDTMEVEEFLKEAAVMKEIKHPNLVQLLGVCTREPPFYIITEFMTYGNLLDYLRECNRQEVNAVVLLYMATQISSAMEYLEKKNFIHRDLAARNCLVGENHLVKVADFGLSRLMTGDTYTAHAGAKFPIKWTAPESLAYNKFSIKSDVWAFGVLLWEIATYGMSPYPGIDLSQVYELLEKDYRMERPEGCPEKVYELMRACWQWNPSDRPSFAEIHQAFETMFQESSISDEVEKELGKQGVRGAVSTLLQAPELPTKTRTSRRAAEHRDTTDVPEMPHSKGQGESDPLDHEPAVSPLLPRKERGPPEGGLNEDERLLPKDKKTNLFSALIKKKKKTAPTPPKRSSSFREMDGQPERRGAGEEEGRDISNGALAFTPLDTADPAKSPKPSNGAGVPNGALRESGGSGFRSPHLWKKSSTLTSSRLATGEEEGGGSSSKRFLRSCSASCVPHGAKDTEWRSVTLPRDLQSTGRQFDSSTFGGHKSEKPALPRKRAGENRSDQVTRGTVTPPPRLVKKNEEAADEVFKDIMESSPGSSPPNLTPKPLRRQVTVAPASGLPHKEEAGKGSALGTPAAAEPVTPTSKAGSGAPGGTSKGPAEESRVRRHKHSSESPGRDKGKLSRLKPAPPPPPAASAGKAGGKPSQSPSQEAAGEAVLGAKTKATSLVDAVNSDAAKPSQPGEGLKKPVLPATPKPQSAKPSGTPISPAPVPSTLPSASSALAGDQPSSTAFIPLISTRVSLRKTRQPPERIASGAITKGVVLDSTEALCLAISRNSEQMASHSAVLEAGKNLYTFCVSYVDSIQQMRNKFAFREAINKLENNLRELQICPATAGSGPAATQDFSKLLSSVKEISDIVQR
Sequence of MLK1 (P80192 whole entry, species assumed): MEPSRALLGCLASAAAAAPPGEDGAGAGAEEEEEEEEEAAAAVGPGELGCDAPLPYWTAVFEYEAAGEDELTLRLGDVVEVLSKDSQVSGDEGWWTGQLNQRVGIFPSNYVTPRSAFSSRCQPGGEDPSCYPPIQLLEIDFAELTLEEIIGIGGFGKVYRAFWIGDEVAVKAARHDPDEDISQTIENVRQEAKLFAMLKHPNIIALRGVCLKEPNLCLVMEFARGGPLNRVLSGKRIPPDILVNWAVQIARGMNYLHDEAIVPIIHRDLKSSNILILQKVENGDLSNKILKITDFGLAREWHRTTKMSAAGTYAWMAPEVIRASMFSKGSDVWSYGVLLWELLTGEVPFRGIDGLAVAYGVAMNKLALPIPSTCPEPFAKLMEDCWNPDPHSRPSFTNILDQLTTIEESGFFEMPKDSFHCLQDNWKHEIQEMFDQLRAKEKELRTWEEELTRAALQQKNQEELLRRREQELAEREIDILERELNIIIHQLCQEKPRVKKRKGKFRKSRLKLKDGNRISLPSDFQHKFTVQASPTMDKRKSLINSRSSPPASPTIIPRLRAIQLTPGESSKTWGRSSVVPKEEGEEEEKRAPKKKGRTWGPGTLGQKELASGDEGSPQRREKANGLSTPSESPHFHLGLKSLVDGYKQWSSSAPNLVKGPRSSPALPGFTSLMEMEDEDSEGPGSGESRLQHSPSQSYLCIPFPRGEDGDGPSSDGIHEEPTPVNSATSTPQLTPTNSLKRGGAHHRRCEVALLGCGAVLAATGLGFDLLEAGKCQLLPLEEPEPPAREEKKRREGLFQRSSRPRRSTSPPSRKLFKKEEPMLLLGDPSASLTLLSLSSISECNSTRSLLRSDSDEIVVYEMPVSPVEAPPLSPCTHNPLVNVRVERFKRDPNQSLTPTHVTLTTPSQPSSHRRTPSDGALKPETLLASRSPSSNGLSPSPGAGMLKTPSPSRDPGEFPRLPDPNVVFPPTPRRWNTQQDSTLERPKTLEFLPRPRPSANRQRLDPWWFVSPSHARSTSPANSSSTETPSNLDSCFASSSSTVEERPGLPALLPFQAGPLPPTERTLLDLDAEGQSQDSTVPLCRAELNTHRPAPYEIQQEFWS
Sequence of TTBK1 (Q5TCY1 whole entry, species assumed): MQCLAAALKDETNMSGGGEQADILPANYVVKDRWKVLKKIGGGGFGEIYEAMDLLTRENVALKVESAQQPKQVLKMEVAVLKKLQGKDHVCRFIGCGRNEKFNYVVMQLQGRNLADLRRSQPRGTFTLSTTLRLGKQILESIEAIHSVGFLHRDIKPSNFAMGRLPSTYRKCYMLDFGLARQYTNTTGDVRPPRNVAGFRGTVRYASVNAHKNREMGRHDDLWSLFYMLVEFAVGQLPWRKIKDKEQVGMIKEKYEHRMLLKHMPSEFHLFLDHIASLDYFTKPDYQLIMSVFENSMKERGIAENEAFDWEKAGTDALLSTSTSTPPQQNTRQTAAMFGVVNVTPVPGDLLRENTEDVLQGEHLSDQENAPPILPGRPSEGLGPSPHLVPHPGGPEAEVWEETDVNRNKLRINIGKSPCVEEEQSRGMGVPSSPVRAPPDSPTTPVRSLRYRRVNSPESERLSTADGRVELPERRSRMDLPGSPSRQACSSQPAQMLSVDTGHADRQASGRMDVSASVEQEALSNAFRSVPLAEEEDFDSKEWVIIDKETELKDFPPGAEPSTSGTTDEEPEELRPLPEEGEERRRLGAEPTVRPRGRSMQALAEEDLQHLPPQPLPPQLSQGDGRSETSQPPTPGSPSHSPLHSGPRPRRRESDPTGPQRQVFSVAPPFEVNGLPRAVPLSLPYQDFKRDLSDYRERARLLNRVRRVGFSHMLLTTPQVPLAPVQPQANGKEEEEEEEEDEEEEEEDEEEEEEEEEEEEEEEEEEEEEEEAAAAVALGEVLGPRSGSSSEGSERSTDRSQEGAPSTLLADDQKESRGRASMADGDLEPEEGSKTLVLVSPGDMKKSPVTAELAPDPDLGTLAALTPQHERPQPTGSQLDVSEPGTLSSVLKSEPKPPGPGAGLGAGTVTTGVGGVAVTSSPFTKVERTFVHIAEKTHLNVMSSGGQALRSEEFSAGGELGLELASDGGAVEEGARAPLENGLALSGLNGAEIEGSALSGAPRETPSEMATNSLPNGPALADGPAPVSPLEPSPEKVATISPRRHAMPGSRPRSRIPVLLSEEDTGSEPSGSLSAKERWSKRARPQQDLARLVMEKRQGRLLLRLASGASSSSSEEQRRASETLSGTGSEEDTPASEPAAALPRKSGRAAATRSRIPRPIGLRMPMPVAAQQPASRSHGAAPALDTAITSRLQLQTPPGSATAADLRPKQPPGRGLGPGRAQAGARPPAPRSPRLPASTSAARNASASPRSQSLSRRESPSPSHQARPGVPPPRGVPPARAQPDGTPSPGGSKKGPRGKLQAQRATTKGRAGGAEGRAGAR
Sequence of PDGFRA (P16234 24-1089, species assumed): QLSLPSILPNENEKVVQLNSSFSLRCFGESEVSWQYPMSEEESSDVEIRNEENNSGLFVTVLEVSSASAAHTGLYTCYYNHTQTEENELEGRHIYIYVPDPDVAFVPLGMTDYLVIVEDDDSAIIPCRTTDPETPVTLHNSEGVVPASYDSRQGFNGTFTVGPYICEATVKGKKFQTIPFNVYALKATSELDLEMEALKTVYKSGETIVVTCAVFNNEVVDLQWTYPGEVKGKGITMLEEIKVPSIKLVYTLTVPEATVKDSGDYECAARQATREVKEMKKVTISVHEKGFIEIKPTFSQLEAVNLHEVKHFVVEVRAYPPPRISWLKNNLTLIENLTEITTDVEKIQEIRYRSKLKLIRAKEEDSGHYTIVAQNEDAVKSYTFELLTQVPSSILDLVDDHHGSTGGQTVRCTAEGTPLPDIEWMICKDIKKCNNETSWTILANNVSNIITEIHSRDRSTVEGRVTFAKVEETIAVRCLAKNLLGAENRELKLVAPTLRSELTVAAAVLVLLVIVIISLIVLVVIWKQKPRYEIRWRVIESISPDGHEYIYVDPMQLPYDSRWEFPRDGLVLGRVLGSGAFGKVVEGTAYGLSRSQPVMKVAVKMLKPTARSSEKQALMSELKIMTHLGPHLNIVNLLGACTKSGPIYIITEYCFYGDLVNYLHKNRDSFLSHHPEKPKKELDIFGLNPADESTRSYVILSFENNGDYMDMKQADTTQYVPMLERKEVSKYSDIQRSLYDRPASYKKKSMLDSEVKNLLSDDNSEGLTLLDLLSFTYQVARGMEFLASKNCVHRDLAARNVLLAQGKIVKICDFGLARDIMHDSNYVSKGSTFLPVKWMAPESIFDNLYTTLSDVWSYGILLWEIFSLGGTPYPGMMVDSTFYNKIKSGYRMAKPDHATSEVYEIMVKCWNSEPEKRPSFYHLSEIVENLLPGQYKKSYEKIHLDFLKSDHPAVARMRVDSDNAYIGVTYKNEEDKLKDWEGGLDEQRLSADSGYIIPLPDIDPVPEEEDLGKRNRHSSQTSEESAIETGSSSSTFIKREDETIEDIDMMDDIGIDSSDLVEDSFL

SMILES | residual kinase activity, AMPK (AMPK; [1]) | residual kinase activity, MNK1 (MNK1; [1]) | residual kinase activity, MARK1 (MARK1; [1]) | residual kinase activity, TTBK1 (TTBK1; [1]) | residual kinase activity, MLK1 (MLK1; [1]) | residual kinase activity, ULK2 (ULK2; [1]) | residual kinase activity, ABL (ABL; [1]) | residual kinase activity, EPH-B2 (EPH-B2; [1]) | residual kinase activity, PDGFRA (PDGFRA; [1]) | also measured
CC(=O)Nc1nc2cc(O)ccc2s1 [Compound 01-66, N-(5-hydroxybenzo[d]thiazol-2-yl)acetamide] | 61 |  |  |  |  |  |  |  |  | remaining activity at 100 µM (MNK1): 17%; remaining activity at 100 µM (MARK1): 56%; remaining activity at 100 µM (TTBK1): 68%; remaining activity at 100 µM (MLK1): 39%; remaining activity at 100 µM (ABL): 29%; remaining activity at 100 µM (EPH-B2): 70%
CC(=O)Nc1nc2ccc(O)cc2s1 [Compound 01-71] | 37 |  |  |  |  |  |  |  |  | remaining activity at 100 µM (MNK1; [1]): 28%; remaining activity at 100 µM (MARK1; [1]): 33%; remaining activity at 100 µM (TTBK1; [1]): 61%; remaining activity at 100 µM (MLK1; [1]): 11%; remaining activity at 100 µM (ABL; [1]): 17%; remaining activity at 100 µM (EPH-B2; [1]): 59%
O=C(Nc1nc2cc(O)ccc2s1)c1cccnc1 [Compound 03-33] | 91 | 21 | 103 | 89 | 61 | 85 | 105 | 99 | 61 | 
O=C(Nc1nc2cc(O)ccc2s1)c1ccccn1 [Compound 03-13] | 80 | 100 | 99 | 100 | 68 | 56 | 71 | 72 | 43 | 
CC(=O)Nc1nc2cc(C)ccc2s1 [Compound 03-76] | 77 | 81 | 94 | 84 | 57 | 88 | 82 | 108 | 59 | 
O=C(Nc1nc2ccc(O)cc2s1)c1ccncc1 [Compound 08-42] | 61 | 53 | 75 | 70 | 33 | 63 | 76 | 99 | 40 | 
O=C(Nc1nc2ccc(O)cc2s1)c1ccccn1 [Compound 03-12] | 86 | 67 | 89 | 91 | 31 | 87 | 113 | 103 | 56 | 
CC(=O)Nc1cccc(NC(=O)c2nc3ccc(O)cc3s2)c1 [Compound 03-07, N-(3-acetamidophenyl)-6-hydroxybenzo[d]thiazole-2-carboxamide] |  |  |  |  |  |  |  |  |  | remaining activity at 100 µM (MNK1; [2]): 40%; residual kinase activity, AMPK (AMPK; [2]): 76; remaining activity at 100 µM (MARK1; [2]): 106%; remaining activity at 100 µM (TTBK1; [2]): 93%; remaining activity at 100 µM (MLK1; [2]): 26%; remaining activity at 100 µM (ULK2; [2]): 81%; remaining activity at 100 µM (ABL; [2]): 105%; remaining activity at 100 µM (EPH-B2; [2]): 110%; remaining activity at 100 µM (PDGFRA; [2]): 44%
O=C(Nc1nc2ccc(O)cc2s1)c1ccccc1 [Compound 03-60] | 30 | 18 | 96 | 46 | 5 | 69 | 54 | 78 | 29 | 
CC(=O)Nc1nc2ccccc2s1 [Compound 03-32] | 107 | 89 | 77 | 80 | 72 | 92 | 86 | 116 | 78 | 
CC(=O)Nc1nc2ccc(C#N)cc2s1 [Compound 01-94] | 73 |  |  |  |  |  |  |  |  | remaining activity at 100 µM (MNK1; [1]): 47%; remaining activity at 100 µM (MARK1; [1]): 60%; remaining activity at 100 µM (TTBK1; [1]): 73%; remaining activity at 100 µM (MLK1; [1]): 34%; remaining activity at 100 µM (ULK2; [1]): 68%; remaining activity at 100 µM (ABL; [1]): 31%; remaining activity at 100 µM (EPH-B2; [1]): 42%; remaining activity at 100 µM (PDGFRA; [1]): 40%
O=C(Nc1nc2cc(O)ccc2s1)c1ccncc1 [Compound 03-11] | 84 | 45 | 90 | 99 | 71 | 86 | 99 | 89 | 63 | 
COc1ccc2sc(NC(C)=O)nc2c1 [Compound 03-21] | 100 |  |  |  |  |  |  |  |  | remaining activity at 100 µM (MNK1; [1]): 77%; remaining activity at 100 µM (MARK1; [1]): 98%; remaining activity at 100 µM (TTBK1; [1]): 93%; remaining activity at 100 µM (MLK1; [1]): 84%; remaining activity at 100 µM (ULK2; [1]): 86%; remaining activity at 100 µM (ABL; [1]): 111%; remaining activity at 100 µM (EPH-B2; [1]): 96%; remaining activity at 100 µM (PDGFRA; [1]): 87%
